According to US9993494B2, “Compositions and methods for treating fibrotic disease” (eFFECTOR Therapeutics, Inc., priority 2014, dated 2018):

Tested on: normal human lung fibroblasts
Test: Ribosomal profiling: translational efficiency in TGFβ-treated fibroblasts
Type: cell-based
Conditions: TGFβ-treated fibroblasts
Outline: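 Cells lysed on ice after a cold PBS wash containing cycloheximide. Ribosome-protected fragments and total mRNA were prepared with the ARTseq kit and sequenced by RNA-Seq. Reads were trimmed, mapped to the human genome and counted uniquely over coding regions per gene, with low-count genes excluded before differential translational-efficiency analysis.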

Structure (SMILES): CC(C=CC(=O)NO)=CC(C)C(=O)c1ccc(N(C)C)cc1 (stereo not drawn) [TSA, 7-[4-(dimethylamino)phenyl]-N-hydroxy-4,6-dimethyl-7-oxohepta-2,4-dienamide]
- renormalizing the translational profile of RPL9 (ENSG00000163682): − (− = <0.9)
- renormalizing the translational profile of RHOBTB3 (ENSG00000164292): − (− = <0.9)
- renormalizing the translational profile of RPL36AL (ENSG00000165502): − (− = <0.9)
- renormalizing the translational profile of RPL27A (ENSG00000166441): − (− = <0.9)
- renormalizing the translational profile of RP11-382A20.3.1 (ENSG00000166503): − (− = <0.9)
- renormalizing the translational profile of ANKDD1A (ENSG00000166839): − (− = <0.9)
- renormalizing the translational profile of RPL13 (ENSG00000167526): − (− = <0.9)
- renormalizing the translational profile of EEF2 (ENSG00000167658): + (+ = 0.9 to 1.5)
- renormalizing the translational profile of CA5B (ENSG00000169239): + (+ = 0.9 to 1.5)
- renormalizing the translational profile of KIAA1024 (ENSG00000169330): − (− = <0.9)
- renormalizing the translational profile of MURC (ENSG00000170681): + (+ = 0.9 to 1.5)
- renormalizing the translational profile of HTRA3 (ENSG00000170801): − (− = <0.9)
- renormalizing the translational profile of PDE7B (ENSG00000171408): ++ (++ = 1.5 to 2.0)
- renormalizing the translational profile of LPAR3 (ENSG00000171517): ++ (++ = 1.5 to 2.0)
- renormalizing the translational profile of CTPS (ENSG00000171793): − (− = <0.9)
- renormalizing the translational profile of QARS (ENSG00000172053): − (− = <0.9)
- renormalizing the translational profile of RPL38 (ENSG00000172809): − (− = <0.9)
- renormalizing the translational profile of MRPL45 (ENSG00000174100): − (− = <0.9)
- renormalizing the translational profile of RPL4 (ENSG00000174444): − (− = <0.9)
- renormalizing the translational profile of RPL15 (ENSG00000174748): − (− = <0.9)
- renormalizing the translational profile of DES (ENSG00000175084): − (− = <0.9)
- renormalizing the translational profile of EIF3F (ENSG00000175390): − (− = <0.9)
- renormalizing the translational profile of CLCF1 (ENSG00000175505): + (+ = 0.9 to 1.5)
- renormalizing the translational profile of AMIGO3 (ENSG00000176020): + (+ = 0.9 to 1.5)
- renormalizing the translational profile of C14orf49 (ENSG00000176438): − (− = <0.9)
- renormalizing the translational profile of RPLP2 (ENSG00000177600): − (− = <0.9)
- renormalizing the translational profile of IMPDH2 (ENSG00000178035): − (− = <0.9)
- renormalizing the translational profile of DNAJC22 (ENSG00000178401): − (− = <0.9)
- renormalizing the translational profile of RPL35A (ENSG00000182899): − (− = <0.9)
- renormalizing the translational profile of LENG9 (ENSG00000182909): − (− = <0.9)
- renormalizing the translational profile of C22orf32 (ENSG00000183172): − (− = <0.9)
- renormalizing the translational profile of NPW (ENSG00000183971): − (− = <0.9)
- renormalizing the translational profile of PDE4B (ENSG00000184588): + (+ = 0.9 to 1.5)
- renormalizing the translational profile of ROBO2 (ENSG00000185008): − (− = <0.9)
- renormalizing the translational profile of PTCH1 (ENSG00000185920): − (− = <0.9)
- renormalizing the translational profile of POLR1D (ENSG00000186184): − (− = <0.9)
- renormalizing the translational profile of DYNC2H1 (ENSG00000187240): − (− = <0.9)
- renormalizing the translational profile of RPL14 (ENSG00000188846): + (+ = 0.9 to 1.5)
- renormalizing the translational profile of LRRK2 (ENSG00000188906): − (− = <0.9)
- renormalizing the translational profile of NACA (ENSG00000196531): − (− = <0.9)
- renormalizing the translational profile of LAMB3 (ENSG00000196878): − (− = <0.9)
- renormalizing the translational profile of PCBP2 (ENSG00000197111): + (+ = 0.9 to 1.5)
- renormalizing the translational profile of MAP3K5 (ENSG00000197442): + (+ = 0.9 to 1.5)
- renormalizing the translational profile of RPL37A (ENSG00000197756): − (− = <0.9)
- renormalizing the translational profile of RPL12 (ENSG00000197958): − (− = <0.9)
- renormalizing the translational profile of LPAR1 (ENSG00000198121): − (− = <0.9)
- renormalizing the translational profile of RPL23A (ENSG00000198242): − (− = <0.9)
- renormalizing the translational profile of PLN (ENSG00000198523): − (− = <0.9)
- renormalizing the translational profile of RPL10A (ENSG00000198755): − (− = <0.9)
- renormalizing the translational profile of CES1 (ENSG00000198848): − (− = <0.9)
- renormalizing the translational profile of RPL39 (ENSG00000198918): − (− = <0.9)
- renormalizing the translational profile of CARD16 (ENSG00000204397): − (− = <0.9)
- renormalizing the translational profile of MICA (ENSG00000204520): − (− = <0.9)
- renormalizing the translational profile of GNB2L1 (ENSG00000204628): − (− = <0.9)
- renormalizing the translational profile of RPL17 (ENSG00000215472): − (− = <0.9)
- renormalizing the translational profile of RPL41 (ENSG00000229117): − (− = <0.9)
- renormalizing the translational profile of ARPC1A (ENSG00000241685): + (+ = 0.9 to 1.5)
- renormalizing the translational profile of CHCHD10 (ENSG00000250479): − (− = <0.9)
- renormalizing the translational profile of EEF1G (ENSG00000254772): − (− = <0.9)
- number of genes whose translational efficiency was uniquely modulated by the compound (duplicate ribosomal profiles): 13 genes
- effect in renormalizing the translational profile of the gene (gene RPS2 (ENSG00000140988)): − (− = <0.9)
- effect in renormalizing the translational profile of the gene (gene RPS3 (ENSG00000149273)): − (− = <0.9)
- effect in renormalizing the translational profile of the gene (gene RPS3A (ENSG00000145425)): − (− = <0.9)
- effect in renormalizing the translational profile of the gene (gene RPS4X (ENSG00000198034)): − (− = <0.9)
- effect in renormalizing the translational profile of the gene (gene RPS4Y1 (ENSG00000129824)): − (− = <0.9)
- effect in renormalizing the translational profile of the gene (gene RPS5 (ENSG00000083845)): − (− = <0.9)
